Two substances from US20210171948A1, “COMPOSITIONS AND METHODS FOR TARGETING GLYPICAN-2 IN THE TREATMENT OF CANCER” (Shepherd Therapeutics, Inc., priority 2019, published 2021) can be followed below.

d = 2'-deoxy (DNA); r = 2'-OH (RNA)

Holding throughout (format): cell-based
In one data set the test system is CHLA-136 cells. The experiment in a line: Doxorubicin IC50 in siRNA-transfected cells, Cell Titer Glo viability (Example 8). The settings on record: for IC50: CHLA-136 cells transfected with the labelled siRNA, doxorubicin added 24 hours post transfection, 72 hour incubation. (Cellular ATP, detected with luciferase, serves as a proxy for viable cell number.)
The subject of a further data set is KELLY cells. The data set is described as above. The settings on record: for Data Summary: effect of knockdown on sensitivity to doxorubicin: KELLY; for IC50: KELLY cells transfected with the labelled siRNA, doxorubicin added 24 hours post transfection, 72 hour incubation.
A further data set relates to CHLA-172 cells. The description is as above. The settings on record: for IC50: CHLA-172 cells transfected with the labelled siRNA, doxorubicin added 24 hours post transfection, 72 hour incubation.
Data set [1] has as its system CHP212, SKNAS, SKNBE2 or CHLA90 neuroblastoma cells. Description: Tumor spheroid formation after siRNA transfection, low attachment plate (Example 11). The conditions noted are these: 96 hours following transfection, in cells with the highest degree of GPC2 mRNA knockdown (FIG. 6). The protocol: The effect of GPC2 knockdown on tumor spheroid formation was assessed. CHP212, SKNAS, SKNBE2 or CHLA90 neuroblastoma cells were transfected with either a scrambled control siRNA or with a GPC2 siRNA of sequence 5 from Table 7 using the RNAiMAX Lipofectamine kit (Invitrogen, Carlsbad, Calif.), as previously described. Following transfection, cells were plated in a low attachment 96 well plate for spheroid formation while under siRNA treatment.

A word on the IC50: it is the midpoint of a concentration-inhibition curve. For “GPC2 siRNA 3: siRNA duplex: sense CCUGCUUGGACCUCGAUAA[dT][dT] (SEQ ID NO: 207), anti-sense UUAUCGAGGUCCAAGCAGG[dT][dT] (SEQ ID NO: 208) (sense CCUGCUUGGACCUCGAUAANN; antisense UUAUCGAGGUCCAAGCAGGNN; 3' dTdT overhangs, chemistry not fully specified; listed as Homo sapiens)”, the IC50 with CHLA-136 cells was 170 nM; with KELLY cells, 70 nM; in the data set on CHLA-172 cells, 2000 nM. For the same substance, the “Data Summary: effect of knockdown on sensitivity to doxorubicin” value in the data set with KELLY cells is recorded as “not increase sensitivity”.
In the case of “GPC2 siRNA 5: siRNA duplex: sense CUCAGUAGCCCAGCACUCU[dT][dT] (SEQ ID NO: 211), anti-sense AGAGUGCUGGGCUACUGAG[dT][dT] (SEQ ID NO: 212) (sense CUCAGUAGCCCAGCACUCUTT; antisense AGAGUGCUGGGCUACUGAGTT; sugars from the 5' end r19 d2, backbone not given here; listed as Homo sapiens)”, the Tumor spheroid formation result in data set [1] is “greatest inhibition in their ability to form spheroids”. Moreover, the “Data Summary: effect of knockdown on sensitivity to doxorubicin” value in the data set with CHLA-136 cells (CHLA-136) is on record as “KD with sequence 5 increases”; in the data set with KELLY cells it was “not increase sensitivity”; in the data set with CHLA-172 cells (CHLA-172), “KD with sequence 5 increases”. Further, the IC50 with CHLA-136 cells came to 80 nM; with KELLY cells, 60 nM; in the data set with CHLA-172 cells it was 900 nM.
